Entries after “also recorded” stand apart in the source; their conditions may differ. Square brackets hold non-standard residues; d marks the D form. Ends that are not written are not given here. Hyp = O=C(O)[C@@H]1C[C@@H](O)CN1
Legend:
[1] = test system: MCF-7 human breast cancer xenografts; assay: Human breast cancer xenograft assay, MCF-7; type: in vivo; conditions: E2-supplemented SCID mice; peptide 1 μg i.p. twice a day, tamoxifen 50 μg i.p. once a day; 30-day observation
Experimental: FIG. 5 illustrates the anti-estrotrophic activity of hydroxyproline-substituted linear peptide against MCF-7 human breast cancer xenografts. There were five to eight replicate mice per treatment group. Estrogen was provided via a slow release pellet implanted subcutaneously. Peptide was given twice a day i.p. at a dose of 1 μg per mouse. Tumor volumes in each mouse were measured at the time of tumor implantation and at 10-day intervals thereafter during survival laparotomies.
FIGS. 9a and 9b illustrate the effect of AFP-derived peptide on growth of estrogen-receptor-positive MCF-7 and MCF-7/Tarn human breast cancer xenografts. Tumors were implanted as described in Materials and Methods. […] Tumor volumes in each mouse were measured at the time of tumor implantation, again at day 15 after tumor implantation during survival laparotomy and again at day 30 after tumor implantation during necropsy. […]
(§1) Human Breast Cancer Xenograft Assay. […] Tumor growth was monitored during survival laparotomy at 10 day intervals by measurement of the diameters of the short (d) and long axes (D) of each tumor, using a dissecting microscope equipped with an ocular micrometer. Tumor volumes were calculated using the formula (π/6) (d)^2 D, assuming the tumor shape to be an ellipsoid of revolution around its long axis (D). […] Mean tumor volume±standard error in each group was calculated for display of growth curves. […]

[2] = test system: MCF-7 subline made resistant to tamoxifen in culture (MCF-7/Tam xenografts); assay: Human breast cancer xenograft assay, tamoxifen-resistant MCF-7 subline; type: in vivo; conditions: E2-supplemented SCID mice; peptide 1 μg i.p. twice a day, tamoxifen 50 μg i.p. once a day; day 30
Experimental: FIGS. 9a and 9b illustrate the effect of AFP-derived peptide on growth of estrogen-receptor-positive MCF-7 and MCF-7/Tarn human breast cancer xenografts. Tumors were implanted as described in Materials and Methods. Estrogen (●) was provided via a slow-release pellet of estradiol (E2) implanted s.c. Peptide (▴) was given twice a day i.p. at a dose of 1 μg per injection. […] Tumor volumes in each mouse were measured at the time of tumor implantation, again at day 15 after tumor implantation during survival laparotomy and again at day 30 after tumor implantation during necropsy. There was a minimum of 5 mice per group.
Cell Lines. T47D and MDA-231 human breast cancer cell lines were purchased from the American Type Culture Collection (Manassas, Va.). […]
as §1

[3] = test system: estrogen-receptor-positive T47D human breast cancer xenografts; assay: Human breast cancer xenograft assay, T47D; type: in vivo; conditions: E2-supplemented SCID mice; peptide 1 μg i.p. twice a day; 30-day observation
[4] = test system: estrogen-receptor-negative MDA-MB-231 human breast cancer xenografts; assay: Human breast cancer xenograft assay, MDA-MB-231; type: in vivo; conditions: SCID mice, peptide 1 μg i.p. twice a day, tamoxifen 50 μg i.p. once a day, 30-day observation
[5] = test system: MCF-7 human breast cancer xenografts; conditions: Bennett et al. 1998; cited from earlier work
immature mouse uterus = assay: Uterotrophic effect of test agent alone on immature mouse uterus; conditions: agent alone i.p.; peptide up to 10 μg/mouse
Experimental: Various doses indicated on the abscissa of each test agent were injected i.p. Twenty-two hours later uteri were harvested and weighed. Mean normalized uterine weights (mg uterine weight/g mouse body weight) for each group are shown on the ordinate. In FIG. 13b, Pep (1 μg) or vehicle (saline, 0.2 ml) were injected i.p. One hour later E2 (0.5 μg) or Tam (1.0 μg) were injected i.p. Twenty-two hours later uteri were harvested and weighed.
A bioassay for anti-estrotrophic activity was performed using an immature mouse uterine growth assay (22). Swiss/Webster female mice, 6–8 g in body weight (13–15 days old), were obtained from Taconic Farms (Germantown, N.Y.). […] In a typical experiment, each group received two sequential intraperitoneal injections spaced one hour apart. Test material or vehicle control for that material was contained in the first injectant. Estradiol (E2) or vehicle control for E2 was contained in the second injectant. Twenty-two hours after the second injection, uteri were dissected, trimmed free of mesenteries, and immediately weighed. […] Experiments employed a minimum of five mice per group, and the mean normalized uterine weight±standard error for each group was calculated. Percent growth inhibition in a test group was calculated from the normalized uterine wet weights as described below. […]

[6] = test system: E2-stimulated growth of immature mouse uterus; assay: Immature mouse uterine growth assay (anti-estrotrophic activity); type: in vivo; conditions: for inhibition of the uterotrophic effect of estradiol: Pep 1 μg i.p. one hour before E2 0.5 μg i.p., uteri weighed 22 h later (FIG. 13b); for optimal dose for inhibition of estrogen-stimulated growth of mouse uterus: i.p., biphasic dose-response (FIG. 1a)
Experimental: FIGS. 1a and 1b illustrate the anti-uterotrophic activity of octapeptide, SEQ ID NO: 2, […], measured in the immature mouse uterine growth assay. Peptide or vehicle control was injected i.p. into immature female Swiss mice. One hour later 0.5 μg of E2 vehicle control was injected i.p. into these mice. Twenty-two hours later, uteri were dissected and weighed. Percent inhibition of E2-stimulated growth of uterus by peptide was calculated as described in Materials and Methods. There were five to eight replicate mice per treatment group.
(§2) Immature Mouse Uterine Growth Assay.
Differences between groups were evaluated, employing the non-parametric Wilcoxon Sum of Ranks test (one-sided). In all cases, growth inhibitions that were greater than 25% were significant at p≦0.05.

estrogen receptor = target: T1, estrogen receptor (Oryctolagus cuniculus, UniProt G1SML6); assay: Assessment of estrogen receptor antagonism ([3H]estradiol binding, rabbit uterine cytosol)
T1 sequence (G1SML6 1-598): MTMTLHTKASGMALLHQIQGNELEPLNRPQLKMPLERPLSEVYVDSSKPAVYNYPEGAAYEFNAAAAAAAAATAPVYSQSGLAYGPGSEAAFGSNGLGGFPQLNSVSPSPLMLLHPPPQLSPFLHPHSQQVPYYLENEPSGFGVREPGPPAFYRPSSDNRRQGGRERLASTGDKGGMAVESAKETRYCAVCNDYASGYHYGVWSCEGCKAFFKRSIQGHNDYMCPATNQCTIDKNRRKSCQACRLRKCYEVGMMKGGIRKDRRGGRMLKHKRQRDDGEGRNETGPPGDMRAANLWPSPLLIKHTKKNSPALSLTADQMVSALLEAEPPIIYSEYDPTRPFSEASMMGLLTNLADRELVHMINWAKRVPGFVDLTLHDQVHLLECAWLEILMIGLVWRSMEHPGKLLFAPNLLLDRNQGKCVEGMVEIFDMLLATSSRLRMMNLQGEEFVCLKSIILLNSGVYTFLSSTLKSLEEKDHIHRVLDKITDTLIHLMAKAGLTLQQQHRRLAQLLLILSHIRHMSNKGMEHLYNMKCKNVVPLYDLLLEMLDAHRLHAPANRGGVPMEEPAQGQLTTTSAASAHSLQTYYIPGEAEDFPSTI
Experimental: (§3) Rabbit uterine cytosol was used as a source of estrogen receptor.
as §3
Assessment of Estrogen Receptor Antagonism. Commercially obtained rabbit uteri (Pel-Freez Biological, Rogers, Ark.) were used as a source of estrogen receptor. […] Total count tubes received 20 μl of [3H]estradiol and 180 μl of assay buffer. After incubation overnight at 4° C., all but the total count tubes received 300 μl of dextran-coated charcoal suspension; tubes were agitated for 15 min and then centrifuged (1,000×g) for 15 min. Supernatants were decanted into counting vials, scintillant was added, and protein-bound tritium was determined by liquid scintillation counting.

[7] = test system: tamoxifen-stimulated growth of immature mouse uterus; assay: Inhibition of tamoxifen-stimulated growth of immature mouse uterus; type: in vivo; conditions: Pep 1 μg i.p. one hour before Tam 1.0 μg i.p., uteri weighed 22 h later
Description: as §2

[8] = Preliminary pharmacokinetic studies in mice; type: in vivo

CC/C(=C(\c1ccccc1)c1ccc(OCCN(C)C)cc1)c1ccccc1 [tamoxifen, reference compound]
effect on growth (tumor volume vs E2 alone) of MCF-7 xenografts [1]: prevented growth; also recorded: no increase in tumor volume | effect on growth (tumor volume vs E2 alone) of tamoxifen-resistant MCF-7 subline xenografts [2]: resistant to tamoxifen in vivo; also recorded: only minimally effective | effect on growth (tumor volume vs E2 alone) of T47D xenografts [3]: prevented growth | effect on growth of MDA-MB-231 xenografts [4]: Neither peptide nor tamoxifen were effective; also recorded: did not affect the growth | effect on MCF-7 breast cancer xenograft growth in an earlier study [5]: shown to stop MCF-7 breast cancer xenograft growth | uterotrophic effect on immature mouse uterus (immature mouse uterus): stimulate the growth of the immature mouse uterus

EMTOVNOG (EMT[Hyp]VN[Hyp]G; listed as Homo sapiens) [SEQ ID NO: 4]
inhibition of the uterotrophic effect of estradiol ([6]; listed as Pep): significantly different | inhibition of the uterotrophic effect of estradiol ([6]; listed as peptide): inhibited | effect on growth (tumor volume vs E2 alone) of MCF-7 xenografts [1]: prevented growth; also recorded: no significant increase in tumor volume | effect on growth (tumor volume vs E2 alone) of tamoxifen-resistant MCF-7 subline xenografts [2]: completely prevented the xenograft growth; also recorded: completely stopped the growth | effect on growth (tumor volume vs E2 alone) of T47D xenografts [3]: completely prevented tumor growth | effect on growth of MDA-MB-231 xenografts [4]: Neither peptide nor tamoxifen were effective; also recorded: no effect on the growth | effect on growth of MDA-MB-231 xenografts ([4]; listed as AFP-derived peptide): no differences in tumor volumes between any of the groups | competition/interference with estrogen binding to the estrogen receptor (estrogen receptor; cell-free system, no concentration stated): does not interfere | interference with E2 binding to ER (estrogen receptor; peptide concentration range of 10^−10M to 10^−5M): no interference | inhibition of the uterotrophic effect of tamoxifen [7]: significantly inhibited | inhibition of the uterotrophic effect of tamoxifen ([7]; listed as peptide): inhibited | biological half-life [8]: two to three

EMTPVNPG (listed as Homo sapiens) [SEQ ID NO: 6, amino acids 472–479 of alpha-fetoprotein]
optimal dose for inhibition of estrogen-stimulated growth of mouse uterus [6]: ~1 μg/mouse | biological activity of stored inactive peptide after brief treatment with 4M urea [6]: regenerated

QMTPVNPG (listed as Homo sapiens) [SEQ ID NO: 2]
% Inhibition of E2-Stimulated Growth of Immature Mouse Uterus ± SE ([6]; Storage Time: Fresh, 1 μg peptide i.p.): 38 ± 3% | % Inhibition of E2-Stimulated Growth of Immature Mouse Uterus ± SE ([6]; Stored over 1 year (lyophilized, −20° C.), 1 μg peptide i.p.): 0 ± 2% | % Inhibition of E2-Stimulated Growth of Immature Mouse Uterus ± SE ([6]; after Urea Treatment (4 M urea, room temperature, one hour) of agent II (stored over 1 year) or IV (fresh), 1 μg i.p.): 34 ± 4% | anti-estrotrophic activity after storage (shelf-life) ([6]; after five weeks of storage at −20° C. lyophilized, 1 μg per mouse (FIG. 1b)): diminished to insignificant levels | optimal dose for inhibition of estrogen-stimulated growth of mouse uterus [6]: 1 μg/mouse | biological activity of higher molecular weight gel-filtration fraction of aged peptide ([6]; left side of peak (FIG. 2b), 1 μg i.p.): biologically inactive | biological activity of lower molecular weight gel-filtration fraction of aged peptide ([6]; right side of peak (FIG. 2b), 1 μg i.p.): active | biological activity of aged peptide ([6]; stored in the lyophilized state at −20° C. for over one year): completely biologically inactive | biological activity of stored inactive peptide after brief treatment with 4M urea [6]: restored its biological activity

From US7220402B1, “Alpha-fetoprotein peptides and uses for imaging” (Ordway Research Institute, Inc., priority 2001, dated 2007)
